What all share (type): in vivo
One test concerns Botrytis cinerea. Put plainly: Test A: tomato seedlings sprayed with test suspension, inoculated with Botrytis cinerea (gray mold), visual disease rating. The following applies: Cmpd. No. unmarked; 100 = 100% disease control, 0 = no control relative to controls. An excerpt:
(§1) General protocol for preparing test suspensions for Tests A-E: the test compounds were first dissolved in acetone in an amount equal to 3% of the final volume and then suspended at the desired concentration (in ppm) in acetone and purified water (50/50 mix by volume) containing 250 ppm of the surfactant Trem® 014 (polyhydric alcohol esters). The resulting test suspensions were then used in Tests A-E. Samples were applied to plants at either a 10 ppm (**), 40 ppm, 50 ppm (*) or 200 ppm (#) test solution to the point of run-off on the test plants with the equivalent of a rate of 40 g ai/ha, 160 g ai/ha, 200 g ai/ha, or 800 g ai/ha, respectively.
The test suspension was sprayed to the point of run-off on tomato seedlings. The following day the seedlings were inoculated with a spore suspension of Botrytis cinerea (the causal agent of gray mold on many crops) and incubated in a saturated atmosphere at 20° C. for 48 h, and moved to a growth chamber at 27° C. for 2 days, after which time visual disease ratings were made.
(§2) Results for Tests A-E are given in Table A. In the Table, a rating of 100 indicates 100% disease control and a rating of 0 indicates no disease control (relative to the controls). A dash (-) indicates no test results.

Test [1] concerns Erysiphe graminis f. sp. tritici. Description: Test E: wheat seedlings sprayed with test suspension, inoculated with Erysiphe graminis f. sp. tritici (wheat powdery mildew), visual disease rating. An outline of the steps: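 Wheat seedlings sprayed to run-off with compound suspension (acetone 3%, acetone/water 50/50 with 250 ppm Trem 014) at 10, 40, 50 or 200 ppm (40–800 g ai/ha), inoculated next day with spore dust. Incubated 7 or 8 days at 20° C, then rated visually as % disease control relative to controls (0–100).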

Test [2] has as its system Puccinia recondite f. sp. tritici. Description: Test D: wheat seedlings sprayed with test suspension, inoculated with Puccinia recondite f. sp. tritici (wheat leaf rust), visual disease rating. An outline of the steps: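 Wheat seedlings were sprayed to run-off with compound suspended in 50/50 acetone–water containing 250 ppm Trem 014, at 10-200 ppm (40-800 g ai/ha). They were inoculated with rust spores the next day, then kept 24 h saturated at 20 °C and 6 days at 20 °C. Scores are visual % disease control versus untreated controls.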

The subject of test [3] is Stagonospora nodorum (also known as Septoria nodorum). Description: Test B: wheat seedlings sprayed with test suspension, inoculated with Stagonospora nodorum (wheat glume blotch), visual disease rating.
Source text: as §1
The test suspension was sprayed to the point of run-off on wheat seedlings. The following day the seedlings were inoculated with a spore suspension of Stagonospora nodorum (also known as Septoria nodorum; the causal agent of wheat glume blotch) and incubated in a saturated atmosphere at 20° C. for 48 h, and then moved to a growth chamber at 20° C. for 6 days, after which time visual disease ratings were made.
as §2

In another test the test system is Septoria tritici. Description: Test C: wheat seedlings sprayed with test suspension, inoculated with Septoria tritici (wheat leaf blotch), visual disease rating. An outline of the steps:
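Wheat seedlings sprayed to run-off with compound suspended in acetone/water with 250 ppm Trem 014, at 10, 40, 50 or 200 ppm (40–800 g ai/ha). Inoculated with Septoria tritici spores the next day, held 48 h saturated at 24 °C, then 21 days at 20 °C. Visual rating 0–100% disease control relative to controls.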

[4] abbreviates: Cmpd. No. unmarked, 100 = 100% disease control, 0 = no control relative to controls.
[5] abbreviates: Cmpd. No. marked '*' (other test rate; meaning of mark not shown).

For the molecule `CC(c1ccc(C(F)(F)F)c(-n2ccc(C(F)(F)F)n2)c1)N(C(=O)c1cn(C)nc1C(F)F)C1CC1` (stereo not drawn) [compound 21], the “Test A rating (% disease control)” value in the test with Botrytis cinerea was 0%. Moreover, in test [1] (setting [4]), the “Test E rating (% disease control)” value was found to be 64%. Besides, the “Test D rating (% disease control)” value in test [2] (setting [4]) turned out to be 0%. In addition, the “Test B rating (% disease control)” value in test [3] (setting [4]) was determined as 0%.
Regarding `CC(c1cc(Cl)cc(-n2ccc(C(F)(F)F)n2)c1)N(C(=O)c1cn(C)nc1C(F)F)C1CC1` (stereo not drawn) [compound 22], the “Test A rating (% disease control)” value in the test with Botrytis cinerea was determined as 0%. Moreover, the “Test E rating (% disease control)” value in test [1] (setting [4]) turned out to be 81%. In addition, in test [2] (setting [4]), the “Test D rating (% disease control)” value was found to be 55%. Besides, the “Test B rating (% disease control)” value in test [3] (setting [4]) came to 90%.
The matching figures for `Cn1nc(C(F)F)c(C(=O)N(Cc2ccc(-n3ccc(C(F)(F)F)n3)cc2OC(F)(F)F)C2CC2)c1F` [compound 23]: 0%, 98%, 99% and 98%.
`Cn1cc(C(=O)N(Cc2c(Cl)cc(-n3cccn3)cc2Cl)C2CC2)c(C(F)F)n1` [compound 24]: in the test with Botrytis cinerea, the “Test A rating (% disease control)” value was determined as 0%. Also, the “Test E rating (% disease control)” value in test [1] (setting [4]) amounted to 90%. For the same molecule, in test [2] (setting [4]), the “Test D rating (% disease control)” value is listed as 99%. For the same molecule, the “Test B rating (% disease control)” value in test [3] (setting [4]) is given as 100%.
With `COc1cc(-n2ccc(C(F)(F)F)n2)ccc1CN(C(=O)c1c(C(F)F)nn(C)c1F)C1CC1` [compound 25], the “Test A rating (% disease control)” value in the test with Botrytis cinerea is on record as 0%. Further, the “Test E rating (% disease control)” value in test [1] (setting [4]) is reported as 98%. For the same molecule, the “Test D rating (% disease control)” value in test [2] (setting [4]) came to 100%. Moreover, the “Test B rating (% disease control)” value in test [3] (setting [4]) is 100%.
Consider `CC(c1cc(-n2ccc(C(F)(F)F)n2)ccc1Cl)N(C(=O)c1c(C(F)F)nn(C)c1F)C1CC1` (stereo not drawn) [compound 135], for which the “Test E rating (% disease control)” value in test [1] (setting [5]) is on record as 95%. Besides, the “Test C rating (% disease control)” value in the test with Septoria tritici (setting [5]) is 99%. Moreover, in test [2] (setting [5]), the “Test D rating (% disease control)” value is recorded as 80%. The “Test B rating (% disease control)” value in test [3] (setting [5]) came out at 100%.
In the case of `COc1ccc(-n2ccc(C(F)(F)F)n2)cc1C(C)N(C(=O)c1c(C(F)F)nn(C)c1F)C1CC1` (stereo not drawn) [compound 142], the “Test E rating (% disease control)” value in test [1] (setting [5]) was determined as 98%. Besides, the “Test C rating (% disease control)” value in the test with Septoria tritici (setting [5]) was determined as 97%. Moreover, the “Test D rating (% disease control)” value in test [2] (setting [5]) is given as 83%. Besides, in test [3] (setting [5]), the “Test B rating (% disease control)” value turned out to be 100%.
`Cn1nc(C(F)F)c(C(=O)N(Cc2ccc(-n3cc(Cl)cn3)cc2Cl)C2CC2)c1F` [compound 143]: the “Test E rating (% disease control)” value in test [1] (setting [4]) came out at 99%. Besides, the “Test C rating (% disease control)” value in the test on Septoria tritici (setting [4]) is on record as 99%. For the same molecule, the “Test D rating (% disease control)” value in test [2] (setting [4]) was 99%. Moreover, the “Test B rating (% disease control)” value in test [3] (setting [4]) is listed as 100%.
With `Cc1cnn(-c2ccc(CN(C(=O)c3c(C(F)F)nn(C)c3F)C3CC3)c(Cl)c2)c1` [compound 144], the “Test E rating (% disease control)” value in test [1] (setting [4]) is 99%. Besides, in the test on Septoria tritici (setting [4]), the “Test C rating (% disease control)” value was 99%. The “Test D rating (% disease control)” value in test [2] (setting [4]) worked out at 97%. In addition, in test [3] (setting [4]), the “Test B rating (% disease control)” value came out at 100%.
On to `Cn1nc(C(F)F)c(C(=O)N(Cc2ccc(-n3cncn3)cc2Cl)C2CC2)c1F` [compound 145], for which, in test [1] (setting [4]), the “Test E rating (% disease control)” value is recorded as 0%. In addition, the “Test C rating (% disease control)” value in the test on Septoria tritici (setting [4]) amounted to 95%. Besides, the “Test D rating (% disease control)” value in test [2] (setting [4]) is given as 0%. In addition, in test [3] (setting [4]), the “Test B rating (% disease control)” value worked out at 95%.
As to `Cn1nc(C(F)F)c(C(=O)N(Cc2ccc(-n3cnc(Cl)n3)cc2Cl)C2CC2)c1F` [compound 146], the “Test E rating (% disease control)” value in test [1] (setting [4]) came to 0%. The “Test C rating (% disease control)” value in the test on Septoria tritici (setting [4]) is 94%. For the same molecule, in test [2] (setting [4]), the “Test D rating (% disease control)” value was 0%. In addition, the “Test B rating (% disease control)” value in test [3] (setting [4]) worked out at 0%.
Consider `Cn1nc(C(F)F)c(C(=O)N(Cc2ccc(-n3cnc(Br)n3)cc2Cl)C2CC2)c1F` [compound 147], for which, in test [1] (setting [4]), the “Test E rating (% disease control)” value was determined as 0%. The “Test C rating (% disease control)” value in the test on Septoria tritici (setting [4]) was determined as 93%. Also, in test [2] (setting [4]), the “Test D rating (% disease control)” value is 0%. Moreover, the “Test B rating (% disease control)” value in test [3] (setting [4]) turned out to be 0%.

These data come from US10098350B2, “Fungicidal amides” (E. I. DU PONT DE NEMOURS AND COMPANY, priority 2013, dated 2018).
